In US11230526B1, “Cylcoalkenyl derivatives useful as agonists of the GPR120 and/or GPR40 receptors” (Janssen Pharmaceutica NV, priority 2018, dated 2022):

Legend:
Assay type in all cases: cell-based
[1] = biological target: T1, Human GPR120 short form (Homo sapiens, UniProt Q5NUL3); assay: Human GPR120 calcium flux assay, Procedure Calcium B (4200 cells/well)
T1 construct: expressed in transfected cells
T1 sequence (Q5NUL3 1-361): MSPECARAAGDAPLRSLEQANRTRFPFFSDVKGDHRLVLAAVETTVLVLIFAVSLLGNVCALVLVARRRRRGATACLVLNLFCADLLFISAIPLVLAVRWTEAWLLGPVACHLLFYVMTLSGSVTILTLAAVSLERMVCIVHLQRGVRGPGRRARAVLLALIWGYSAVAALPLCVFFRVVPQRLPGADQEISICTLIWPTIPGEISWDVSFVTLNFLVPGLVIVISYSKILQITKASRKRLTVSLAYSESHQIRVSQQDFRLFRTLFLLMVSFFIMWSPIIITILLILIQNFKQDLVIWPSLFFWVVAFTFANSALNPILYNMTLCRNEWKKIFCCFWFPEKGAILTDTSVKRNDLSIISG
Procedure, shortened: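 Agonist EC50 came from a four-parameter fit of RFU (Fmax−Fmin) read over 300 s on FLIPR. Cells were HEK293 stably transfected with human GPR120 (NM_001195755.1) at 4200 per well, serum-starved 1 h and loaded with Fluo-4 NW dye with probenecid before ligand addition.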

[2] = biological target: T2, human GPR40 (Homo sapiens, UniProt O14842); assay: GPR40 calcium flux assay, human GPR40; settings: HEK293 cells stably expressing GPR40; table does not say human or rat
T2 construct: expressed in transfected cells
T2 sequence (O14842 whole entry): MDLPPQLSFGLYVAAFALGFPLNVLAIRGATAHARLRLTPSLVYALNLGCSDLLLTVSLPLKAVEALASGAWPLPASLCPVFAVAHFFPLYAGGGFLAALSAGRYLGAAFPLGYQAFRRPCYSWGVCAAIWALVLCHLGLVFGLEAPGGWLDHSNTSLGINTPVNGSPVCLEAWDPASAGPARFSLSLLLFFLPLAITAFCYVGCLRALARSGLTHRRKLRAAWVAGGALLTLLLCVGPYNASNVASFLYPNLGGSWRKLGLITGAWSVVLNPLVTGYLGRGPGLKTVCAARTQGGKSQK
Procedure, shortened: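 Cells preincubated 1 h at 37° C. in HBSS, 20 mM HEPES, 0.1% BSA, then Fluo 8 calcium dye 30 min at 37° C. and 15 min at room temperature.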

[3] = biological target: T3, short form of the GPR120 receptor (Homo sapiens, UniProt Q5NUL3); assay: Human GPR120 DiscoveRx PathHunter Beta-Arrestin assay, Procedure β-arrestin B
T3 construct: host or cells: PathHunter CHO-K1 GPR120S β-Arrestin Cell Line
T3 sequence (P32121 whole entry partner, one chain of several): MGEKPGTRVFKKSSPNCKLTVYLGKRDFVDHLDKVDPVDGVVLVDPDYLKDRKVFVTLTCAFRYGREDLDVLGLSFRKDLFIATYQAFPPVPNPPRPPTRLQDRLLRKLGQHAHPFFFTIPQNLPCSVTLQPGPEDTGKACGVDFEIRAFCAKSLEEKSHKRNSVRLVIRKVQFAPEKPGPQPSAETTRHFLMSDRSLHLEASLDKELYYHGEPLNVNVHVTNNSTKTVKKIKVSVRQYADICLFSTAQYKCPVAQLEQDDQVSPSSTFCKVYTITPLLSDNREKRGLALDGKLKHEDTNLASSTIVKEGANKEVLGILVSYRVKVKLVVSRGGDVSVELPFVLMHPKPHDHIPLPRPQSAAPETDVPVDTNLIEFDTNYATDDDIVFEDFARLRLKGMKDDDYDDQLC
Source text: Human GPR120 DiscoveRx PathHunter® Beta-Arrestin Assay Assay Principle:
The binding of an agonist (medium/long chain fatty acids or small molecule agonists) to the G-protein-coupled receptor GPR120 activates phospholipase C, leading to release of intracellular Ca^+2 through the generation of inositol 1,4,5-trisphosphate (InsP3 or IP3). GPR120 activation can also trigger intracellular signaling via recruitment of Beta-Arrestin. In the present method, agonist-induced activation of the human GPR120 receptor is monitored through the use of PathHunter® CHO-K1 GPR120 Beta-Arrestin Cell Line engineered by DiscoveRx, as detailed below. The cell lines are designed to co-express both the ProLink/Enzyme Donor (PK)-tagged GPCR and the Enzyme […] (EA)-tagged Beta-Arrestin fusion proteins. Upon GPR120 receptor stimulation/activation, the EA-tagged Beta-Arrestin portion is translocated to the tagged receptor, where the two enzyme fragments are brought within close proximity. Under these conditions, these fragments can interact and form an active Beta-gal enzyme complex through Enzyme Fragment Complementation (EFC). This active Beta-gal complex can enzymatically hydrolyse the substrate to produce a detectable light signal; therefore, activation as a function of agonist concentration can be expressed as an EC50 value to determine relative compound activities. This in vitro assay therefore serves to assess compound agonist activity of the GPR120.
In Procedure β-arrestin B the cells used were PathHunter® CHO-K1 GPR120S β-Arrestin Cell Line, expressing the short form of the GPR120 receptor (Accession #[…]), with 5000 cells/well.
The selected CHO-K1 GPR120 β-Arrestin cells were cultured in Ham's F12 media supplemented with 10% fetal bovine serum (FBS), 1% Glutamine, 1×p/s, 800 μg/mL G418 and 300 μg/mL Hygromycin B (for selection). Cell stocks were maintained and grown in a sub-confluent state using standard cell culture procedures. The day before the experiment, the cells were harvested with non-enzymatic cell dissociation buffer and re-suspended in complete growth media at the desired concentration. A Corning 384-plate was then seeded with the proper number of cells in a volume of 25 μL, per well. The seeded plates were incubated overnight at 37° C.
On the day of the experiment, the Assay Buffer containing (a) HBSS with Ca^++ and Mg^++, (b) 20 mM HEPES, and (c) 0.1% BSA stabilizer (pH 7.4) was prepared. The growth medium was gently removed from the cell plates and 20 μL of Assay Buffer added to each well. The plate was then incubated at 37° C. for 60 min. Test compounds were serially diluted in Assay Buffer to desired concentrations (more particularly to one or more of the following μM concentrations: 25, 12.5, 6.25, 3.12, 1.56, 0.78, 0.39, 0.19, 0.10, 0.05, 0.02, 0.01). Five μL of compound dilution was then added to each well and the plate incubated at 37° C. for 90 min. The detection reagents were prepared according to the manufacture's instruction. Twelve μL of the detection reagents were added to each well and the plate incubated at room temperature for 60 min.
The plates were read on an EnVision instrument, using Protocol name: Luminescence, Plate type: 384 Costar, Measurement height: 3 mm, Measurement time: 1 s, Aperture: 384 Plate aperture. The % Activity relative to the positive control was calculated using the following equation:
The % Activity values were plotted versus the concentration of test compound and fitted to a sigmoidal dose-response curve with a Hill slope=1 (fixed value) using nonlinear regression with GraphPad Prism 5.0 to calculate the EC50 values. The Fitting Equation was: Y=Bottom+(Top-Bottom)/(1+10^((Log EC50−X)*HillSlope)), where X is the log of the concentration and Y is the response.

[4] = biological target: T4, long form of human GPR120 (Homo sapiens, UniProt Q5NUL3); assay: Human GPR120 DiscoveRx PathHunter Beta-Arrestin assay, Procedure β-arrestin A
T4 construct: host or cells: PathHunter CHO-K1 GPR120 β-Arrestin Cell Line
T4 sequence (Q5NUL3 1-377 isoform Q5NUL3-1): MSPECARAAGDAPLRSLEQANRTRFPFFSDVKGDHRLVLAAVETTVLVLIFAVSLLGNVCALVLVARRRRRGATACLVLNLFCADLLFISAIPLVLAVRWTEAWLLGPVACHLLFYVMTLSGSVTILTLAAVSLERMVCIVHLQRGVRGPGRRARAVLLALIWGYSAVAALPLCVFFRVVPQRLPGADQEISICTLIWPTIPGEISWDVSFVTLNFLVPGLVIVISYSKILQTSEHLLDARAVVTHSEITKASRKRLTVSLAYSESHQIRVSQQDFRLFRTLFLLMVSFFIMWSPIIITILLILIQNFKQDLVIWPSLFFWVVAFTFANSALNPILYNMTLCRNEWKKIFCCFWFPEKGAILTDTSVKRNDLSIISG
T4 sequence (P32121 whole entry partner): as the sequence (P32121 whole entry partner, one chain of several) above
Procedure, shortened: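 PathHunter CHO-K1 cells expressing long-form human GPR120 (3000/well) were seeded overnight. They were then preincubated 60 min in HBSS with 20 mM HEPES and 0.1% BSA, pH 7.4, and exposed to compound for 90 min at 37 °C. β-Arrestin recruitment was read as β-gal complementation luminescence. EC50 came from % activity versus positive control, Hill slope fixed at 1.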

[5] = biological target: T1, Human GPR120 short form; assay: Human GPR120 calcium flux assay, Procedure Calcium A (2500 cells/well)
Source text: Human GPR120 in Calcium Flux Assay
This in vitro assay serves to assess test compound agonist activity against the short splice variant (SVS with Accession number NM_001195755.1 confirmed by sequencing data) of the GPR120 receptor. The Human Short splice variant #2 (NM_001195755.1) is missing an in-frame coding exon compared to variant 1 (the Human Long splice variant NM_181745.3), resulting in a shorter isoform (GPR120-S) lacking a 16 aa protein segment compared to isoform GPR120-L. The assay platform utilizes HEK-293 cells stably transfected to express the Human GPR120 short form. These cells are first loaded with the Ca^+2 sensitive dye, Fluo-4 NW. Upon stimulation, intracellular released Ca^+2 can bind to the dye and alter its fluorescence intensity. This increase in fluorescence signal, and thus the flux in intracellular [Ca^2+], is detected and quantitated by fluorescence imaging using a FLIPR reader. The effect of the agonist is measured as a function of concentration and used to calculate an EC50 based upon a response curve.
In this procedure 2500 cells/well were employed.
A Human GPR120 clone (Genbank accession number NM_001195755.1) was placed into the pcDNA3.1 mammalian expression vector carrying the neomycin resistance gene. A stable mammalian cell was generated by placing the above clone into a HEK293 background. Clonal cells responding to long chain fatty acids had expression levels of GPR120 confirmed by RT-qPCR. Human HEK-GPR120 cells were cultured in Dulbecco's Modified Eagle's Medium (DMEM)/F12 medium supplemented with 10% fetal bovine serum (FBS), 1% L-Glutamine and 1% penicillin/streptomycin and 0.5 mg/ml G-418. Cells were split 2 times a week to keep the cells in the log-phase growth.
In preparation for the assay, HEK cells stably transfected with Human GPR120 (2.5K cells per well in 25 uL growth medium) were seeded into 384-well plates and then incubated overnight (37° C., 5% CO2). The next day, the media was changed to 20 μL assay buffer and the cell starved for 1 h at 37° C. The dye loading solution (2× dye) was prepared using 10 mL assay buffer, 100 μL of 250 mM probenecid, 1 bottle of Component A, and 20 μl of dye in DMSO. Twenty μL of the 2× dye loading buffer was then added to each well. The plates were incubated at 37° C. for 30 min, then at room temperature for an additional 15 minutes, before performing the assay on FLIPR.
The assay was performed on a FLIPR plate reader using the following parameters. Baseline was read for 10 seconds at 1 sec intervals. The program was set to transfer 10 μL of ligand from compound plate to cell plate after baseline reading. Aspiration was executed at: 10 μL/sec speed, 4.6 μL height, Dispensing was executed at: 30 μL/sec speed, 45 μL height. After compound addition, each well was read for 300 sec, with measurements collected at 1 sec intervals.
The kinetic data from the FLIPR was based upon a 5 minute window for data collection. The fluorescence of each sample well was used for individual calculations of a normalized RFU value, which was defined as maximum response minus the minimum response. The normalized fluorescence reading (RFU) was calculated as follows: RFU=Fmax−Fmin
The Fitting Equation was: Y=Bottom+(Top-Bottom)/(1+10^((Log EC50−X)*HillSlope)), where X is the log of the concentration and Y is the response.

SMILES	EC50 [1] [nM]	EC50 [2] [nM]	EC50 [3] [nM]	EC50 [4] [nM]	EC50 [5] [nM]
Cc1c(CCC(=O)O)ccc(OCC2=C(c3ccc(Cl)cc3)CCC2C(F)(F)F)c1C (stereo not drawn) [Compound 12, 3-[4-[[2-(4-chlorophenyl)-5-(trifluoromethyl)cyclopenten-1-yl]methoxy]-2,3-dimethyl-phenyl]Propanoic Acid]	481	> 5000	93	–	–
O=C(O)CCc1ccc(OCC2=C(c3ccc(Cl)cc3)CCC2C(F)(F)F)c(F)c1F (stereo not drawn) [Compound 32, 3-[4-[[2-(4-chlorophenyl)-5-(trifluoromethyl)cyclopenten-1-yl]methoxy]-2,3-difluoro-phenyl]Propanoic Acid]	311	> 5000	203	341	–
O=C(O)CCc1cc(F)c(OCC2=C(c3ccc(Cl)cc3)CCC2C(F)(F)F)c(F)c1 (stereo not drawn) [Compound 33, 3-[4-[[2-(4-chlorophenyl)-5-(trifluoromethyl)cyclopenten-1-yl]methoxy]-3,5-difluoro-phenyl]Propanoic Acid]	288	> 5000	180	312	–
Cc1ccc(C2=C(COc3ccc(CCC(=O)O)c(F)c3F)CCC2)cn1 [Compound 87, 3-(2,3-difluoro-4-((2-(6-methylpyridin-3-yl)cyclopent-1-en-1-yl)methoxy)phenyl)Propanoic Acid]	–	> 5000	493	–	–
Cc1c(CCC(=O)O)ccc(OCC2=C(c3ccc(F)c(F)c3)CCC2)c1C [Compound 117]	110	> 5000	190	256	–
O=C(O)CCc1ccc(OCC2=C(c3ccc(Cl)cc3)CCC2)c(Br)c1 [Compound 129, 3-[3-bromo-4-[[2-(4-chlorophenyl)cyclopenten-1-yl]methoxy]phenyl]Propanoic Acid]	21	> 5000	47	–	–
Cc1ccc(C2=C(COc3c(F)cc(CCC(=O)O)cc3F)CCC2)cc1N [Compound 135, 3-(4-((2-(3-amino-4-methylphenyl)cyclopent-1-en-1-yl)methoxy)-3,5-difluorophenyl)Propanoic Acid]	–	> 5000	1250	–	–
CC(Cc1ccc(OCC2=C(c3ccc(F)cc3)CCC2)c(F)c1)C(=O)O (stereo not drawn) [Compound 458, 3-(3-fluoro-4-((2-(4-fluorophenyl)cyclopent-1-en-1-yl)methoxy)phenyl)-2-methylpropanoic Acid]	331	–	371	–	–
O=C(O)CCc1ccc(OCC2=C(c3ccc(Cl)cc3)CCCC2)cc1F [Compound 504, 3-[4-[[2-(4-chlorophenyl)cyclohexen-1-yl]methoxy]-2-fluoro-phenyl]Propanoic Acid]	330	4020	–	–	2820
Cc1cc(OCC2=C(c3ccc(Cl)cc3)CCCC2)ccc1CCC(=O)O [Compound 506, 3-[4-[[2-(4-chlorophenyl)cyclohexen-1-yl]methoxy]-2-methyl-phenyl]Propanoic Acid]	182	> 5000	–	–	1590
Cc1c(CCC(=O)O)ccc(OCC2=C(c3ccc(C(C)C)cc3)CCCC2)c1C [Compound 516, 3-[4-[[2-(4-isopropylphenyl)cyclohexen-1-yl]methoxy]-2,3-dimethyl-phenyl]Propanoic Acid]	755	> 5000	–	–	4610
Cc1c(CCC(=O)O)ccc(OCC2=C(c3ccc(C#N)cc3)CCCC2)c1C [Compound 520, 3-[4-[[2-(4-cyanophenyl)cyclohexen-1-yl]methoxy]-2,3-dimethyl-phenyl]Propanoic Acid]	1450	> 5000	–	–	2360
Cc1ccc(C2=C(COc3ccc(CCC(=O)O)c(C)c3C)CCCC2)cn1 [Compound 521]	626	> 5000	–	–	1280
